Tests used:
Conditions in all cases: averaged IC50
[1] = target: His-tagged recombinant human AXL cytoplasmic domain (Homo sapiens (Human), UniProt P30530); experiment: AXL Enzyme Assay (LanthaScreen Eu Kinase Binding, TR-FRET)
Experimental: (§1) Compounds of Formula I were screened for their ability to inhibit AXL kinase using Invitrogen's LanthaScreen™ Eu Kinase Binding technology. […] After a 60-minute incubation at 22° C., the reaction was measured using a PerkinElmer EnVision multimode plate reader via TR-FRET dual wavelength detection, and the percent of control (POC) was calculated using a ratiometric emission factor. […] The POC values are fit to a 4 parameter logistic curve and the IC50 value is point where the curve crosses 50 POC.

[2] = target: His-tagged recombinant human MER cytoplasmic domain (Homo sapiens (Human), UniProt Q12866); experiment: MER Enzyme Assay (LanthaScreen Eu Kinase Binding, TR-FRET)
Chain of His-tagged recombinant human MER cytoplasmic domain (Q12866 527-999): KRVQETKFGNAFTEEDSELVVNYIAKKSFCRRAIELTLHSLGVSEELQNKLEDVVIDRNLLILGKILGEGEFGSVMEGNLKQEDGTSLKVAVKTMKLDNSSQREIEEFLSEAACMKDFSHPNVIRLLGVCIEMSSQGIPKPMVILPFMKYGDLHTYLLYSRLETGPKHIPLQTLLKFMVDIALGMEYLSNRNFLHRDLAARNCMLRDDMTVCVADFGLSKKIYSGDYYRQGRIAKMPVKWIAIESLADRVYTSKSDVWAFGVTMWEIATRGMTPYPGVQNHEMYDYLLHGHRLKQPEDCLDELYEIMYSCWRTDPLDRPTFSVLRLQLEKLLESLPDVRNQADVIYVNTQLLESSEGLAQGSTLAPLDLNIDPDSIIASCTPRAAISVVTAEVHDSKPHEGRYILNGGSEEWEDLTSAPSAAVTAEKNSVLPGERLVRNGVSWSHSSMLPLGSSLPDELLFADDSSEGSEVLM
Experimental: as §1, with “MER” for “AXL”

[3] = target: GST-tagged recombinant human TYRO3 kinase domain (Homo sapiens (Human), UniProt Q06418); experiment: TYRO3 Enzyme Assay (LanthaScreen Eu Kinase Binding, TR-FRET)
Chain of GST-tagged recombinant human TYRO3 kinase domain (Q06418 518-790): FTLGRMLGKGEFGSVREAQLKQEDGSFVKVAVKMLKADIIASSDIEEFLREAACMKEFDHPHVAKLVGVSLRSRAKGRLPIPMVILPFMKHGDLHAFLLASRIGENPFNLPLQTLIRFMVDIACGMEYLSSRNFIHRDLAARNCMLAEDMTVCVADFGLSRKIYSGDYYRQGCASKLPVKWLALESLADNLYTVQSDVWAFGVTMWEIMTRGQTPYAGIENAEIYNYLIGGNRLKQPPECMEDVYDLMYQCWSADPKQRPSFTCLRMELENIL
Experimental: as §1, with “TYRO3” for “AXL”, “(POC)” for “(POC) was”, “were” for “are”

Chain of His-tagged recombinant human AXL cytoplasmic domain (P30530 473-894): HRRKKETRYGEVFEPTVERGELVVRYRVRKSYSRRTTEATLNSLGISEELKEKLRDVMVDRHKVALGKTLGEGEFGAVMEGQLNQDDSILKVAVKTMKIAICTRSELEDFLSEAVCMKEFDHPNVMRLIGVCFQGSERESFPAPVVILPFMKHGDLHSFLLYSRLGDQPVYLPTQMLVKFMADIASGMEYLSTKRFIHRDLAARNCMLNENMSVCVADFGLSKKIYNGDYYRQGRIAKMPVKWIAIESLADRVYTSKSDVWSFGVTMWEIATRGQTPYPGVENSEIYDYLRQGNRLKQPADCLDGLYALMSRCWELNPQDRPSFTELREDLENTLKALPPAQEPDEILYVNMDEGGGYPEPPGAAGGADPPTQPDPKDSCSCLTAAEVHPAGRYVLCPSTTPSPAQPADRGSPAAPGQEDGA

CCNc1cc2c(cn1)c(C1CCOC1)nn2[C@H]1CC[C@@H](Oc2nccc(C(F)(F)F)c2F)CC1 (stereo partly drawn) [Example 323, N-ethyl-1-((1s,4s)-4-((3-fluoro-4-(trifluoromethyl)pyridin-2-yl)oxy)cyclohexyl)-3-(tetrahydrofuran-3-yl)-1H-pyrazolo[4,3-c]pyridin-6-amine]
IC50 [1]: < 10 nM
IC50 [2]: < 10 nM

CNc1cc2c(cn1)c(-c1cnn(C)c1)nn2[C@H]1CC[C@@H](Oc2cccc(F)c2F)CC1 [Example 357, 1-((1s,4s)-4-(2,3-difluorophenoxy)cyclohexyl)-N-methyl-3-(1-methyl-1H-pyrazol-4-yl)-1H-pyrazolo[4,3-c]pyridin-6-amine]
IC50 [1]: < 10 nM
IC50 [2]: < 10 nM

CCNc1cc2c(cn1)c(-c1cnn(C)c1)nn2[C@H]1CC[C@@H](Oc2ccc(C(=O)NC)cc2F)CC1 [Example 460, 4-(((1s,45)-4-(6-(ethylamino)-3-(1-methyl-1H-pyrazol-4-yl)-1H-pyrazolo[4,3-c]pyridin-1-yl)cyclohexyl)oxy)-3-fluoro-N-methylbenzamide]
IC50 [1]: < 10 nM

CNc1cc2c(cn1)c(-c1cnn(C)c1)nn2[C@H]1CC[C@@H](Oc2ccc(F)cc2)CC1 [Example 355, 1-((1s,4s)-4-(4-fluorophenoxy)cyclohexyl)-N-methyl-3-(1-methyl-1H-pyrazol-4-yl)-1H-pyrazolo[4,3-c]pyridin-6-amine]
IC50 [1]: < 10 nM
IC50 [2]: < 10 nM

CCc1ncccc1O[C@H]1CC[C@@H](n2nc(-c3cnn(C)c3)c3cnc(NC)cc32)CC1 [Example 145, 1-((1s,4s)-4-((2-ethylpyridin-3-yl)oxy)cyclohexyl)-N-methyl-3-(1-methyl-1H-pyrazol-4-yl)-1H-pyrazolo[4,3-c]pyridin-6-amine]
IC50 [1]: < 10 nM
IC50 [2]: < 10 nM

CNc1cc2c(cn1)c(-c1cnn(C)c1)nn2[C@H]1CC[C@@H](Oc2ccc(F)cc2F)CC1 [Example 358, 1-((1s,4s)-4-(2,4-difluorophenoxy)cyclohexyl)-N-methyl-3-(1-methyl-1H-pyrazol-4-yl)-1H-pyrazolo[4,3-c]pyridin-6-amine]
IC50 [1]: < 10 nM
IC50 [2]: < 10 nM

CNc1cc2c(cn1)c(-c1cnn(C)c1)nn2[C@H]1CC[C@@H](Oc2ccccc2Cl)CC1 [Example 360, 1-((1s,4s)-4-(2-chlorophenoxy)cyclohexyl)-N-methyl-3-(1-methyl-1H-pyrazol-4-yl)-1H-pyrazolo[4,3-c]pyridin-6-amine]
IC50 [1]: < 10 nM
IC50 [2]: < 10 nM

CNc1cc2c(cn1)c(-c1cnn(C)c1)nn2[C@H]1CC[C@@H](Oc2nccnc2C)CC1 [Example 150, N-methyl-3-(1-methyl-1H-pyrazol-4-yl)-1-((1s,4s)-4-((3-methylpyrazin-2-yl)oxy)cyclohexyl)-1H-pyrazolo[4,3-c]pyridin-6-amine]
IC50 [1]: < 10 nM
IC50 [2]: < 10 nM

CCNc1cc2c(cn1)c(-c1cnn(CC(=O)N(C)C)c1)nn2[C@H]1CC[C@@H](Oc2nccc(C(F)(F)F)c2F)CC1 [Example 259, 2-(4-(6-(ethylamino)-1-((1s,4s)-4-((3-fluoro-4-(trifluoromethyl)pyridin-2-yl)oxy)cyclohexyl)-1H-pyrazolo[4,3-c]pyridin-3-yl)-1H-pyrazol-1-yl)-N,N-dimethylacetamide]
IC50 [1]: < 10 nM
IC50 [2]: < 10 nM

CCNc1cc2c(cn1)c(-c1cn(C)c(=O)cn1)nn2[C@H]1CC[C@@H](Oc2nccc(C(F)(F)F)c2F)CC1 [Example 257, 5-(6-(ethylamino)-1-((1s,4s)-4-((3-fluoro-4-(trifluoromethyl)pyridin-2-yl)oxy)cyclohexyl)-1H-pyrazolo[4,3-c]pyridin-3-yl)-1-methylpyrazin-2(1H)-one]
IC50 [1]: < 10 nM
IC50 [2]: < 10 nM

CNc1cc2c(cn1)c(-c1cnn(C(C)(C)C#N)c1)nn2[C@H]1CC[C@@H](Oc2cccnc2C)CC1 [Example 202, 2-methyl-2-(4-(6-(methylamino)-1-((1s,4s)-4-((2-methylpyridin-3-yl)oxy)cyclohexyl)-1H-pyrazolo[4,3-c]pyridin-3-yl)-1H-pyrazol-1-yl)propanenitrile]
IC50 [1]: < 10 nM
IC50 [2]: < 10 nM

Cn1cc(-c2nn([C@H]3CC[C@@H](Oc4cccc(F)c4F)CC3)c3cc(Nc4ccccc4)ncc23)cn1 [Example 486, 1-((1s,4s)-4-(2,3-difluorophenoxy)cyclohexyl)-3-(1-methyl-1H-pyrazol-4-yl)-N-phenyl-1H-pyrazolo[4,3-c]pyridin-6-amine]
IC50 [1]: 1000 to 10000 nM

Cn1cc(-c2nn([C@H]3CC[C@@H](Oc4ccccc4F)CC3)c3cc(NCCC4CC4)ncc23)cn1 [Example 402, N-(2-cyclopropylethyl)-1-((1s,4s)-4-(2-fluorophenoxy)cyclohexyl)-3-(1-methyl-1H-pyrazol-4-yl)-1H-pyrazolo[4,3-c]pyridin-6-amine]
IC50 [1]: 1000 to 10000 nM

CCNc1cc2c(cn1)c(-c1cnc(=O)n(C)c1)nn2C1CCC(Oc2nccc(C(F)(F)F)c2F)CC1 (stereo not drawn) [Example 256, 5-(6-(ethylamino)-1-((1s,4s)-4-((3-fluoro-4-(trifluoromethyl)pyridin-2-yl)oxy)cyclohexyl)-1H-pyrazolo[4,3-c]pyridin-3-yl)-1-methylpyrimidin-2(1H)-one]
IC50 [1]: < 10 nM
IC50 [2]: < 10 nM

CNc1cc2c(cn1)c(-c1cnn(C)c1)nn2[C@H]1CC[C@@H](Oc2ccc(F)cc2CN(C)C)CC1 [Example 370, 1-((1s,4s)-4-(2-((dimethylamino)methyl)-4-fluorophenoxy)cyclohexyl)-N-methyl-3-(1-methyl-1H-pyrazol-4-yl)-1H-pyrazolo[4,3-c]pyridin-6-amine]
IC50 [1]: < 10 nM

CNc1cc2c(cn1)c(-c1cnn(C(C)(C)CO)c1)nn2[C@H]1CC[C@@H](Oc2nccnc2C)CC1 [Example 213, 2-methyl-2-(4-(6-(methylamino)-1-((1s,4s)-4-((3-methylpyrazin-2-yl)oxy)cyclohexyl)-1H-pyrazolo[4,3-c]pyridin-3-yl)-1H-pyrazol-1-yl)propan-1-ol]
IC50 [1]: < 10 nM
IC50 [2]: < 10 nM

CCNc1cc2c(cn1)c(N1CC[C@H](OC)C1)nn2[C@H]1CC[C@@H](Oc2nccc(C(F)(F)F)c2F)CC1 [Example 332, N-ethyl-1-((1s,4R)-4-((3-fluoro-4-(trifluoromethyl)pyridin-2-yl)oxy)cyclohexyl)-3-((S)-3-methoxypyrrolidin-1-yl)-1H-pyrazolo[4,3-c]pyridin-6-amine]
IC50 [1]: < 10 nM
IC50 [2]: < 10 nM

CNc1cc2c(cn1)c(-c1cnn(C)c1)nn2[C@H]1CC[C@@H](Oc2cccc(Cl)c2)CC1 [Example 361, 1-((1s,4s)-4-(3-chlorophenoxy)cyclohexyl)-N-methyl-3-(1-methyl-1H-pyrazol-4-yl)-1H-pyrazolo[4,3-c]pyridin-6-amine]
IC50 [1]: < 10 nM
IC50 [2]: < 10 nM

Cn1cc(-c2nn([C@H]3CC[C@@H](Oc4ncccc4C(F)(F)F)CC3)c3cc(Nc4ccccc4)ncc23)cn1 [Example 306, 3-(1-methyl-1H-pyrazol-4-yl)-N-phenyl-1-((1s,4s)-4-((3-(trifluoromethyl)pyridin-2-yl)oxy)cyclohexyl)-1H-pyrazolo[4,3-c]pyridin-6-amine]
IC50 [1]: 1000 to 10000 nM

CCn1nc(O[C@H]2CC[C@@H](n3nc(-c4ccc(CN5CCN(C)CC5)cc4)c4cnc(NC)cc43)CC2)ccc1=O [Example 79, 2-ethyl-6-(((1s,4s)-4-(6-(methylamino)-3-(4-((4-methylpiperazin-1-yl)methyl)phenyl)-1H-pyrazolo[4,3-c]pyridin-1-yl)cyclohexyl)oxy)pyridazin-3(2H)-one]
IC50 [1]: < 10 nM

CNc1cc2c(cn1)c(-c1cnn(C)c1)nn2[C@H]1CC[C@@H](Oc2ccn(C)c(=O)c2)CC1 [Example 24, 1-methyl-4-(((1s,4s)-4-(3-(1-methyl-1H-pyrazol-4-yl)-6-(methylamino)-1H-pyrazolo[4,3-c]pyridin-1-yl)cyclohexyl)oxy)pyridin-2(1H)-one]
IC50 [3]: < 10 nM

CCNc1cc2c(cn1)c(-c1ccc(CN3CC(F)C3)cc1)nn2[C@H]1CC[C@@H](Oc2ccc(=O)n(C)n2)CC1 [Example 62, 6-(((1s,4s)-4-(6-(ethylamino)-3-(4-((3-fluoroazetidin-1-yl)methyl)phenyl)-1H-pyrazolo[4,3-c]pyridin-1-yl)cyclohexyl)oxy)-2-methylpyridazin-3(2H)-one]
IC50 [3]: 1000 to 10000 nM

CNc1cc2c(cn1)c(-c1cnn(C)c1)nn2[C@H]1CC[C@@H](Oc2cccc(OCC(F)(F)F)n2)CC1 [Example 302, N-methyl-3-(1-methyl-1H-pyrazol-4-yl)-1-((1s,4s)-4-((6-(2,2,2-trifluoroethoxy)pyridin-2-yl)oxy)cyclohexyl)-1H-pyrazolo[4,3-c]pyridin-6-amine]
IC50 [3]: 1000 to 10000 nM

CNc1cc2c(cn1)c(-c1cnn(C)c1)nn2[C@H]1CC[C@@H](Oc2ccc(C(=O)N(C)C)cc2)CC1 [Example 457, N,N-dimethyl-4-(((1s,4s)-4-(3-(1-methyl-1H-pyrazol-4-yl)-6-(methylamino)-1H-pyrazolo[4,3-c]pyridin-1-yl)cyclohexyl)oxy)benzamide]
IC50 [3]: 1000 to 10000 nM

Cn1cc(-c2nn([C@H]3CC[C@@H](Oc4cn(C)nc4C(F)(F)F)CC3)c3cc(Nc4ccccc4)ncc23)cn1 [Example 303, 3-(1-methyl-1H-pyrazol-4-yl)-1-((1s,4s)-4-((1-methyl-3-(trifluoromethyl)-1H-pyrazol-4-yl)oxy)cyclohexyl)-N-phenyl-1H-pyrazolo[4,3-c]pyridin-6-amine]
IC50 [3]: < 10 nM

Reference: patent US11247990B1, “Bicyclic fused pyridine compounds as inhibitors of TAM kinases” (ARRAY BIOPHARMA INC., priority 2017, dated 2022)
